Experimental findings from article PMC3050001 (Science (New York, N.Y.), 2010) are described below.

For series [1], the system named is synchronized parasites at ring, trophozoite and schizont stages. In words: In vitro drug sensitivity assay with synchronized parasites. The series is classed as cell-based, Plasmodium falciparum.
The next series deals with P. berghei. The series is classed as in vivo, Plasmodium berghei (mice).
Series [2] deals with P. vivax clinical isolates. In words: Ex vivo sensitivity assay with fresh clinical isolates.
Series [3] deals with Dd2^attB parasites expressing mutant PfATP4. Put plainly: Growth inhibition of transgenic pfatp4 lines.
The test system of series [4] is P. falciparum parasites (Dd2, NITD609-R^Dd2). In words: [35S]-Met/Cys incorporation assay. It is filed as cell-based, Plasmodium falciparum. The following applies: P. falciparum Dd2, within one hour.
Series [5] deals with drug-selected Dd2 parasites (NITD609-R^Dd2, NITD678-R^Dd2). The following applies: for cross-resistance in spiroindolone-selected mutants: NITD609- and NITD678-selected Dd2 mutants.
The subject of series [6] is panel of human G-protein coupled receptors, enzymes and ion channels.
Another series relates to P. falciparum strains. The following applies: culture-adapted P. falciparum strains incl. drug-resistant strains.
Series [7] is classed as in vivo, mice and rats.
For series [8] the following is noted: miniaturized Ames assay. For orientation: In the Ames test, an excess of revertant colonies over the control signals mutagenicity.
For series [9] the following is noted: male rats, oral, daily for 14 days.
Another series can be described thus: in vivo. The note with it: male, rat, po.
Series [10] has as its system P. falciparum clinical isolates. Put plainly: Ex vivo sensitivity assay with fresh clinical isolates. The following applies: Plasmodium falciparum, in Homo sapiens.

On to `CO[C@H]1O[C@@H]2O[C@@]3(C)CC[C@H]4[C@H](C)CC[C@@H]([C@H]1C)[C@@]24OO3` [Artemether, reference compound], for which the “inhibition of parasite growth” value in series [1] (treatment at 8 nM for 6 hours) is given as “Strong inhibition”. Further, the “Survival” value in the series with P. berghei (1 × 100 mg/kg oral, control animals 6–7 days) is reported as 7.6 days.
With `CCN(CC)CCCC(C)Nc1ccnc2cc(Cl)ccc12` (stereo not drawn) [Chloroquine, reference compound], the “stage-specific sensitivity (ring vs trophozoite)” value in series [2] (P. vivax, drug exposure 20 h, growth determined after 42 hours) is reported as “significant stage-specific sensitivity”.
On to `OC(c1cc(C(F)(F)F)nc2c(C(F)(F)F)cccc12)C1CCCCN1` (stereo not drawn) [Mefloquine], for which, in series [3], the “potency against wild-type vs transgenic strains” value is “equivalent potency”. In addition, the “effect on protein synthesis ([35S]-Met/Cys incorporation)” value (shortened to “effect … ([35S]-Met/Cys incorporation)”) in series [4] is “only showed a nominal decrease”.
With `C[C@H]1Cc2c([nH]c3cc(Cl)c(F)cc23)[C@@]2(N1)C(=O)Nc1ccc(Cl)cc12` [NITD609], the concentration for half-maximal inhibition (IC50) in [5] (Plasmodium falciparum, DD2, read-out: mean IC50 of drug-selected parasites) was 3 to 11 nM; in series [2] (Plasmodium vivax, in Homo sapiens), below 10 nM; in the series on P. falciparum strains, 0.5 to 1.4 nM; in [10], below 10 nM. Also, in series [6], the “binding to off-target panel” value is “no significant binding”. Besides, the volume of distribution result in series [7] (mice and rats, oral and intravenous administration) was “moderate”. In addition, in series [7] (orally administered), the bioavailability entry is recorded as “excellent”. The half-life entry in series [7] (orally administered) is reported as “long”. In [7] (orally administered), the oral absorption result is recorded as “well absorbed”. Also, the intrinsic mutagenic activity entry in series [8] is on record as “lacked intrinsic mutagenic activity”. For the same compound, the “adverse events / histopathological findings” value in series [9] was “no adverse events or significant histopathological findings were observed”. In “physchem” (pH 7.4), this compound yielded a logD of 4.6. For the same compound, the pKa in “physchem” (pKa^2) came out at 10.7. Further, the “sensitivity of parasite blood stages” value is “all stages (rings, trophozoites and schizonts) were similarly sensitive” in series [1] (high concentration, ≈100 × IC50 value); “schizonts were the most susceptible” in [1] (low concentrations, ≈1 or 10 × IC50 value). For the same compound, the AUC(0-t) in “in vivo” fell in the range of 29400 to 56500 ng·h/mL. Besides, in series [4], the “effect … ([35S]-Met/Cys incorporation)” value is “effectively blocked protein synthesis”. Besides, the ED90 with P. berghei (oral, P. berghei mouse model) was determined as 2.7 mg/kg.
Take `COc1ccc(C[C@H]2NC[C@H](O)[C@H]2OC(C)=O)cc1` [anisomycin]: in series [4], the “effect … ([35S]-Met/Cys incorporation)” value was “A similar effect was observed”.
Take `C[C@@H]1CC[C@H]2[C@@H](C)C(=O)O[C@@H]3O[C@@]4(C)CC[C@@H]1[C@]32OO4` [artemisinin]: the “cross-resistance in spiroindolone-selected mutants” value in [5] is given as “None of the selected mutants showed cross-resistance”. The “potency against wild-type vs transgenic strains” value in series [3] is “equivalent potency”. Moreover, the “effect … ([35S]-Met/Cys incorporation)” value in [4] is “only showed a nominal decrease”.
Consider `C[C@@H]1C[C@@H]([C@H](O)CC2CC(=O)NC(=O)C2)C(=O)[C@@H](C)C1` [cycloheximide], for which the “effect … ([35S]-Met/Cys incorporation)” value in series [4] was “A similar effect was observed”.
As to `CC(=O)C1=C(O)[C@@H]2[C@H]3c4c[nH]c5cccc(c45)C[C@H]3C(C)(C)N2C1=O` [cyclopiazonic acid], the “cross-resistance in spiroindolone-selected mutants” value in series [5] is listed as “no cross-resistance”.
The same measure, in the same setting: as for `C/C=C(/C)C(=O)O[C@H]1C(C)=C2[C@H]([C@@H]1OC(=O)CCCCCCC)[C@@](C)(OC(C)=O)C[C@H](OC(=O)CCC)[C@@]1(O)[C@H]2OC(=O)[C@@]1(C)O` [thapsigargin], the entry is “no cross-resistance”.

For orientation: IC50 means the concentration that gives 50% inhibition. For orientation: logD means the decadic logarithm of the distribution of all forms, ionised or not, between an organic phase and buffer at a given pH. The low end stands for lower lipophilicity, the high end for higher lipophilicity. A word on the pKa: it is the negative logarithm of the acid dissociation constant. A higher pKa goes with a group that holds its proton tightly. In general, AUC(0-t) refers to exposure summed from dosing to a finite time, without extrapolation to infinity. Low readings indicate less exposure, high ones more exposure.
